Experiments:
Assay type in all cases: in vivo
[1] = test system: bermudagrass (Cynodon dactylon); assay: Test B pre-/postemergence plant response; conditions: for Plant response rating, Bermudagrass: Postemergence
Method in brief: (§1)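 Visual ratings on a 0–100 scale (100 = complete control) were made versus untreated controls 13–15 days after treatment in a greenhouse. Compounds in surfactant-containing non-phytotoxic solvent were applied preemergence to seeds in loam–sand blend or postemergence to 1- to 4-leaf plants (2–18 cm).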

[2] = test system: cocklebur (Xanthium strumarium); assay: Test B pre-/postemergence plant response; conditions: for Plant response rating, Cocklebur: Postemergence
Method in brief: as §1

[3] = test system: goosegrass (Eleusine indica); assay: Test B pre-/postemergence plant response; conditions: for Plant response rating, Goosegrass: Postemergence
Method in brief: as §1

[4] = test system: green foxtail (Setaria viridis); assay: Test B pre-/postemergence plant response; conditions: for Plant response rating, Foxtail, Green: Postemergence
Method in brief: as §1

[5] = test system: lambsquarters (Chenopodium album); assay: Test B pre-/postemergence plant response; conditions: for Plant response rating, Lambsquarters: Postemergence
Method in brief: as §1

[6] = test system: large crabgrass (Digitaria sanguinalis); assay: Test B pre-/postemergence plant response; conditions: for Plant response rating, Crabgrass, Large: Postemergence
Method in brief: as §1

[7] = test system: morningglory (Ipomoea coccinea); assay: Test B pre-/postemergence plant response; conditions: for Plant response rating, Morningglory: Postemergence
Method in brief: as §1

[8] = test system: wheat (Triticum aestivum); assay: Test B pre-/postemergence plant response; conditions: for Plant response rating, Wheat: Postemergence
Method in brief: as §1

[9] = test system: wild oat (Avena fatua); assay: Test B pre-/postemergence plant response; conditions: for Plant response rating, Oat, Wild: Postemergence
Method in brief: as §1

[10] = test system: yellow nutsedge (Cyperus esculentus); assay: Test B pre-/postemergence plant response; conditions: for Plant response rating, Nutsedge, Yellow: Postemergence
Method in brief: as §1

[11] = test system: barnyardgrass (Echinochloa crus-galli); assay: Test B flooded paddy test; conditions: for Plant response rating, Barnyardgrass: Flood (flooded paddy test), 13 to 15 days
Method in brief: (§2)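 2-leaf seedlings; pots flooded 3 cm over soil at treatment; cpd dosed into floodwater, depth kept constant. Greenhouse 13–15 d. Visual rating vs untreated controls, 0 = no effect, 100 = complete control.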

[12] = test system: umbrella sedge (Cyperus difformis); assay: Test B flooded paddy test; conditions: for Plant response rating, Sedge, Umbrella: Flood (flooded paddy test), 13 to 15 days
Method in brief: as §2

[13] = 62 g ai/ha, postemergence, 0 is no effect, 100 is complete control, 13 to 15 days
[14] = 31 g ai/ha, 0 to 100 scale (0 no effect, 100 complete control)
[15] = 125 g ai/ha, scale 0 to 100 (0 no effect, 100 complete control)
[16] = 250 g ai/ha, scale 0 to 100 (0 no effect, 100 complete control)
[17] = 250 g ai/ha, flooded paddy test, visual rating on 0 to 100 scale (0 no effect, 100 complete control) after 13 to 15 days
[18] = 62 g ai/ha, scale of 0 to 100 where 0 is no effect and 100 is complete control
[19] = 125 g ai/ha, scale 0 to 100, 0 is no effect, 100 is complete control
[20] = Flood, 31 g ai/ha, scale 0 to 100 (0 no effect, 100 complete control)

## COCCn1c(-c2cccc(F)c2)ncc(C(=O)C2=C(O)CCCC2=O)c1=O [Compound 123]
[1]; [13]
  Bermudagrass plant response rating (0 to 100 scale): 85
[1]; [14]
  Plant response rating, Bermudagrass: 80
[1]; [15]
  Plant response rating, Bermudagrass: 90
[1]; [16]
  Plant response rating, Bermudagrass: 98
[2]; [13]
  Cocklebur plant response rating (0 to 100 scale): 80
[2]; [14]
  Plant response rating, Cocklebur: 65
[2]; [15]
  Plant response rating, Cocklebur: 100
[2]; [16]
  Plant response rating, Cocklebur: 100
[3]; [13]
  Goosegrass plant response rating (0 to 100 scale): 65
[3]; [14]
  Plant response rating, Goosegrass: 65
[3]; [15]
  Plant response rating, Goosegrass: 80
[3]; [16]
  Plant response rating, Goosegrass: 85
[4]; [13]
  Foxtail, Green plant response rating (0 to 100 scale): 60
[4]; [14]
  Plant response rating, Foxtail, Green: 50
[4]; [15]
  Plant response rating, Foxtail, Green: 85
[4]; [16]
  Plant response rating, Foxtail, Green: 90
[5]; [13]
  Lambsquarters plant response rating (0 to 100 scale): 95
[5]; [14]
  Plant response rating, Lambsquarters: 80
[5]; [15]
  Plant response rating, Lambsquarters: 98
[5]; [16]
  Plant response rating, Lambsquarters: 98
[6]; [13]
  Crabgrass, Large plant response rating (0 to 100 scale): 80
[6]; [14]
  Plant response rating, Crabgrass, Large: 70
[6]; [15]
  Plant response rating, Crabgrass, Large: 85
[6]; [16]
  Plant response rating, Crabgrass, Large: 90
[7]; [13]
  Morningglory plant response rating (0 to 100 scale): 98
[7]; [14]
  Plant response rating, Morningglory: 70
[7]; [15]
  Plant response rating, Morningglory: 100
[7]; [16]
  Plant response rating, Morningglory: 100
[8]; [13]
  Wheat plant response rating (0 to 100 scale): 15
[8]; [14]
  Plant response rating, Wheat: 10
[8]; [15]
  Plant response rating, Wheat: 15
[9]; [13]
  Oat, Wild plant response rating (0 to 100 scale): 5
[9]; [14]
  Plant response rating, Oat, Wild: 0
[9]; [15]
  Plant response rating, Oat, Wild: 30
[9]; [16]
  Plant response rating, Oat, Wild: 60
[10]; [13]
  Nutsedge, Yellow plant response rating (0 to 100 scale): 75
[10]; [14]
  Plant response rating, Nutsedge, Yellow: 65
[10]; [15]
  Plant response rating, Nutsedge, Yellow: 75
[10]; [16]
  Plant response rating, Nutsedge, Yellow: 80
[11]; [17]
  Plant response rating, Flood, Barnyardgrass: 70
[11]; [18]
  Plant response rating, Barnyardgrass: 40
[11]; [19]
  Plant response rating, Barnyardgrass: 55
[11]; [20]
  Barnyardgrass plant response rating: 30
[12]; [17]
  Plant response rating, Flood, Sedge, Umbrella: 85
[12]; [18]
  Plant response rating, Sedge, Umbrella: 70
[12]; [19]
  Plant response rating, Sedge, Umbrella: 75
[12]; [20]
  Sedge, Umbrella plant response rating: 40

— patent publication US8952024B2, “Herbicidal pyrimidone derivatives” (E I du Pont de Nemours and Company, priority 2009, dated 2015)
